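Exposure lasted 48 hours, with cells grown in 96-well plates and compounds tested at five concentrations. The concentration for 50% growth inhibition is given as GI50. TGI denotes the concentration required for complete inhibition of growth.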
Experiments:
Assay in all cases: NCI anticancer screen, dose series, 48 h
[1] = system: CCRF-CEM leukemia
[2] = system: EKVX NSCLC
[3] = system: HT29 colon
[4] = system: IGROV1 ovarian
[5] = system: K-562 leukemia
[6] = system: NCI-H460 lung
[7] = system: SN12C renal
[8] = system: SNB-75 CNS
[9] = system: SW-620 colon
[10] = system: UACC-62 melanoma

**Q.** What does the source list for Cc1cc(C)c(S(=O)(=O)N(CCCCN)OCCCN)c(C)c1?
**A.** TGI [1]: 38.3 µM; TGI [2]: 31 µM; TGI [3]: 27.8 µM; TGI [4]: 29.4 µM; TGI [5]: 44.4 µM; TGI [6]: 33.4 µM; TGI [7]: 34.4 µM; TGI [8]: 27.5 µM; TGI [9]: 32.6 µM; TGI [10]: 30.7 µM

**Q.** Which GI50 [1] does the source give for OC(c1ccc(Cl)cc1)(c1ccc(Cl)cc1)C(O)(c1ccc(Cl)cc1)c1ccc(Cl)cc1 here?
**A.** 3.41 µM

**Q.** And the TGI [1]?
**A.** > 100 µM

**Q.** What about the GI50 [2] of the same molecule?
**A.** 3.14 µM

**Q.** And the TGI [2]?
**A.** > 100 µM

**Q.** And the GI50 [3]?
**A.** 1720 nM

**Q.** What about the TGI [3] of the same molecule?
**A.** > 100 µM

**Q.** What about the GI50 [4] of the same molecule?
**A.** 1970 nM

**Q.** What about the TGI [4] of the same molecule?
**A.** > 100 µM

**Q.** What about the GI50 [5] of the same molecule?
**A.** 3.56 µM

**Q.** What about the TGI [5] of the same molecule?
**A.** > 100 µM

**Q.** And the GI50 [6]?
**A.** 3.11 µM

**Q.** What about the TGI [6] of the same molecule?
**A.** > 100 µM

**Q.** And the GI50 [7]?
**A.** 3.06 µM

**Q.** What about the TGI [7] of the same molecule?
**A.** > 100 µM

**Q.** And the GI50 [8]?
**A.** 4.36 µM

**Q.** What about the TGI [8] of the same molecule?
**A.** > 100 µM

**Q.** What about the GI50 [9] of the same molecule?
**A.** 3.24 µM

**Q.** And the TGI [9]?
**A.** > 100 µM

**Q.** And the GI50 [10]?
**A.** 2410 nM

**Q.** And the TGI [10]?
**A.** > 100 µM

**Q.** Which results are given for COc1cc(C2C3=C(CCC3=O)Oc3cc4c(cc32)OCO4)cc(OC)c1OC (stereo not given)?
**A.** TGI [1]: > 100 µM; TGI [2]: > 100 µM; TGI [3]: > 100 µM; TGI [4]: > 100 µM; TGI [5]: > 100 µM; TGI [6]: > 100 µM; TGI [7]: > 100 µM; TGI [8]: 0.481 µM; TGI [9]: > 100 µM; TGI [10]: > 100 µM

Reference: PubChem BioAssay (NCI)
